Measured values reported in patent US7385395B2, “Apparatus for preparing a solution of a hyperpolarized noble gas for NMR and MRI analysis” (priority 1996, dated 2008).
Read-outs that look alike come from different tables or passages of the source.

How the values were obtained:
red blood cell (RBC) [1] = details: room temperature; Herbst et al. 1989; cited from earlier work
[2] = in saline; STP volume of xenon dissolved in 1 liter of liquid at 1 atm gas pressure; cited from earlier work
[3] = 129Xe spin-lattice relaxation time (T1) of hyperpolarized xenon in solution; format: physicochemical
Description: The design of the shaker used in the dissolution stage for xenon mixing and delivery is illustrated in FIG. 1. The shaker has a small sidearm which can be isolated from the main volume by a stopcock. The shaker is charged with a sample of either normal abundance or isotopically enriched xenon (80% ^129Xe, EG&G Mound, Miamisburg, Ohio, U.S.A.). Laser polarization is performed prior to admitting the xenon to the shaker. Briefly, approximately 5×10^−4 mol of 80. % isotopically enriched ^129Xe was optically pumped in a 30 cc cylindrical glass pumping cell (diameter≈30 mm). Before optical pumping, the cell was cleaned and coated with SURFASIL® (Pierce Chemical Co., Florence, Mass., U.S.A.); the cell was then evacuated to 10^−6 torr and loaded with one drop of melted rubidium metal in a dry nitrogen environment. Optical pumping was performed with a 1.3 W continuous-wave Ti:sapphire laser (794.7 nm) for 20-30 min, and the temperature of the cell was maintained at 60-80° C. by a temperature-controlled nitrogen gas stream. Typically, the apparatus produces xenon polarization levels in the range of 5-10%.
Following laser polarization, the polarized ^129Xe is frozen at liquid nitrogen temperatures in the sidearm in a magnetic field of approximately 50 mT provided by a small permanent magnet. The magnetic field is used in the freezing stage to prevent the decay of xenon polarization. The xenon is sublimated and then admitted into the solution. The small size of the shaker allows for the accumulation of several atmospheres of xenon pressure which aids in increasing the xenon concentration in the solution. During the dissolution procedure, the vessel is vigorously shaken to help dissolve the xenon gas. The resulting xenon solution is extracted with a syringe through a high-pressure rubber septum. In those examples below wherein a solution NMR study is performed on an in vitro sample, the xenon is immediately injected into an NMR tube which contains the sample to be studied.
Solutions of hyperpolarized ^129Xe in partially deuterated benzene (25% C6D5H, 75% C6D6) were prepared as described above for saline solutions of ^129Xe with the exception that the shaker was charged with the benzene solution rather than saline. Typically, 4×10^−4 mol of enriched ^129Xe (80%, EG&G Mound) were used in one experiment at a pressure of 1 atm. ^129Xe NMR was performed at 51 MHz on a Quest 4300 spectrometer (Nalorac Cryogenics, Martinez, Calif., U.S.A.) with a home built probe and a tipping angle of 3°. ^1H NMR was performed at 185 MHz with a home built probe and a tipping angle of 3°.
Hyperpolarized xenon and mixtures of hyperpolarized xenon and cyclodextrins were prepared generally as discussed above. SPINOE signals of 0.05 M cyclodextrin solutions in deuterated DMSO were measured as described above in Example 8.

human blood = assay: 129Xe NMR relaxation and signal of xenon delivered to human blood / red blood cell sample in vitro; format: in vitro ADME
Description: The portion removed accounted for approximately 30% of the total volume of the blood sample. Following removal of a portion of the plasma, xenon saturated saline (1 mL) was injected into the red blood cell (RBC) sample (1 mL) and the ^129Xe NMR was measured. The NMR spectra were measured on a Bruker AM-400 spectrometer.
By using short rf pulses of small tipping angle, ^129Xe NMR spectra were acquired as a function of time after injection of the xenon/saline mixture into the blood. NMR spectra were measured on a Bruker AM-400 spectrometer.
A solution of hyperpolarized xenon in […] ® was prepared in the same manner as described for the saline solution of hyperpolarized xenon, however, the shaker was charged with […] ® rather than saline. […] The […] ® solution was charged with laser polarized ^129Xe and an aliquot (1 mL) of this solution was added to human blood (1 mL). The spectra were obtained on a Bruker AM-400 spectrometer.
A solution of hyperpolarized xenon in FLUOSOL® was prepared in the same manner as described for the saline solution of hyperpolarized xenon, however, the shaker was charged with FLUOSOL® rather than saline. The FLUOSOL® solution was charged with laser polarized ^129Xe and an aliquot (1 mL) of this solution was added to human blood (1 mL). The spectra were obtained on a Bruker AM-400 spectrometer.

[4] = rat, in vivo
Description: Male rats weighing 200-250 grams were anesthetized by intramuscular injection of ketamine/xylazine/acepromazine (30/3/0.6 mg/kg). Supplemental intramuscular doses were administered as needed to maintain anesthesia. A venous catheter was placed into a tail vein, and the receiver/transmitter surface coil was placed over the heart and liver (FIG. 18). Acquisitions began at start of the injection. Prior to each experiment the rat was placed in lateral recumbency into the magnet. At the conclusion of each experiment, the catheter was removed and the rat was returned to its cage to recover from anesthesia.
The ^129Xe NMR spectra were obtained on a home-built NMR spectrometer interfaced with a Bruker 2.35 T magnet (xenon frequency: 27.68 MHz, bore diameter: 25 cm). […] For the spectroscopy experiment, spectra were obtained every second (pulse angle: ≈20°).
The rats, anesthesia and apparatus were as described in Example 10, above.

red blood cell (RBC) [5] = system: red blood cell (RBC)
Description: NMR spectra were measured on a CMX Infinity spectrometer (Chemamagnetics-Otsuka Electronics, Fort Collins, Colo., U.S.A.) at a magnetic field of 4.3 Tesla.
The xenon exchange rate between the extracellular and intracellular compartments of a RBC/saline/plasma sample was measured by selectively inverting the xenon saline/plasma NMR line and observing the recovery of the two signals. The selective inversion was achieved by an amplitude-modulated Gaussian pulse of 1 ms duration centered at the frequency of the saline/plasma signal. […] A field gradient pulse of 1 ms was applied after the inversion pulse to dephase any components of the transverse magnetization. After the inversion pulse, xenon spectra were taken at fixed time intervals using a small tipping angle (20°). Following the addition of the xenon/saline solution into the RBC sample, a delay of 3 seconds before the application of the inversion pulse insured that the xenon/RBC system was well mixed and equilibrated.
[formula] where τRBC and τp1 are residence time constants for xenon in the RBC and saline/plasma, and 1/τ=1/τRBC+1/τp1. S^oRBC and S^op1 are the initial intensities for the RBC and the plasma/saline components, respectively, immediately after the inversion pulse. The effect of the spin-lattice relaxation is neglected since τ<<T1, making S^oRBC+S^op1 a constant during the exchange process.

[6] = selective inversion experiment, 4.3 Tesla

Row | 129Xe T1 ([3]; 0.1 M p-nitrotoluene in deuterated benzene) | 129Xe T1 ([3]; 0.1 M α-cyclodextrin solution in deuterated DMSO) | T1 of xenon ([3]; H2O/saline (0.9% NaCl), 9.4 T) | xenon T1 ([3]; in INTRALIPID solution) | observed spin-lattice relaxation time of 129Xe in solution ([3]; normal benzene, combination of gas and solution relaxation times) | observed spin-lattice relaxation time of 129Xe in solution ([3]; partially deuterated benzene (25% C6D5H, 75% C6D6)) | T1 of xenon ([3]; saline made with D2O) | T1 of the narrow peak (human blood; xenon/FLUOSOL solution 1 mL added to human blood 1 mL, 216 ppm RBC peak) | T1 decay time of the signal at 194 ppm (human blood; xenon/INTRALIPID solution 1 mL added to human blood 1 mL) | T1 decay time relative to xenon in saline water/blood mixture (human blood; xenon/INTRALIPID solution in blood, 194 ppm signal) | time of maximum xenon signal intensity after start of injection [4] | equilibrium distribution of the integral of the two peaks (RBC vs saline/plasma) (red blood cell (RBC) [5]) | ratio of integrated intensities of broad (FLUOSOL) and narrow (RBC) peaks (red blood cell (RBC) [5]) | ratio of peak of xenon in INTRALIPID solution to peak of intracellular xenon (red blood cell (RBC) [5]) | Structure (SMILES) | residence time constant in the RBC, τRBC (red blood cell (RBC) [1]) | Ostwald coefficient [2] | residence time constant in saline/plasma, τpl (red blood cell (RBC) [5]; [6]) | residence time constant in the RBC, τRBC (red blood cell (RBC) [5]; [6]) | exchange time constant τ (1/τ=1/τRBC+1/τpl) (red blood cell (RBC) [5]; selective inversion of saline/plasma line, 4.3 Tesla)
1 | – | – | – | – | – | – | – | – | – | – | – | – | – | – | O [water] | 12 ± 2 ms | – | – | – | –
2 | > 500 s | 20 s | 66 s | 40 ± 3 s | ~200 s | ~1000 s | ≈ 1000 s | 13 ± 1 s | 16 s | approximately 3 fold | 7 s | approximately 50% | approximately 3 | approximately 6:1 | [Xe] [xenon] | – | 0.0926 | 29.1 ± 2 ms | 20.4 ± 2 ms | 12.0 ± 1 ms
